According to publication PMC3961306, “Comparison of the Cancer Gene Targeting and Biochemical Selectivities of All Targeted Kinase Inhibitors Approved for Clinical Use” (PLoS ONE, 2014):

Legend:
Assay in all cases: Kinase profiling in a biochemical assay panel (mobility shift assays and ELISA), %-inhibition at 1 μM; selectivity entropy
[1] = molecular target: T1, panel of more than 300 wild-type and mutant kinases (313 kinase panel) (Homo sapiens, UniProt O43781)
T1 sequence (O43781 1-588): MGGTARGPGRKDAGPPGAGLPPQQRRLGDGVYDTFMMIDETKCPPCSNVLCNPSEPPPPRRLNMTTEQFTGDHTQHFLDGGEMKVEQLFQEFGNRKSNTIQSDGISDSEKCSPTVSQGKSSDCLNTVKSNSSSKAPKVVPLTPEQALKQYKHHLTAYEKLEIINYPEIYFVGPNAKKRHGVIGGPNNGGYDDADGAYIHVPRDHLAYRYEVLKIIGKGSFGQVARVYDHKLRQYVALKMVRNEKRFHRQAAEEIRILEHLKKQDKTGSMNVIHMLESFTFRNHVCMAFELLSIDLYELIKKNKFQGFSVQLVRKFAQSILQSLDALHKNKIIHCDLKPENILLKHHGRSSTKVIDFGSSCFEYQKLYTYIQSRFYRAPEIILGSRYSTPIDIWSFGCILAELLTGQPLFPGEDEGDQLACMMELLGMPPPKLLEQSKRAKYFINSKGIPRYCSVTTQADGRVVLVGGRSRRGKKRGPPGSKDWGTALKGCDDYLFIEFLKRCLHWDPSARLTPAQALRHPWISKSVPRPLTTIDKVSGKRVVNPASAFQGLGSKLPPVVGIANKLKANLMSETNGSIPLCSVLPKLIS

[2] = molecular target: panel of more than 300 wild-type and mutant kinases (313 kinase panel) (Homo sapiens, UniProt P06493)
[3] = molecular target: panel of more than 300 wild-type and mutant kinases (313 kinase panel) (Homo sapiens, UniProt Q9BUB5)
[4] = molecular target: panel of more than 300 wild-type and mutant kinases (313 kinase panel) (Homo sapiens, UniProt Q9BYP7)
[5] = molecular target: panel of more than 300 wild-type and mutant kinases (313 kinase panel) (Homo sapiens, UniProt Q9UKE5)
[6] = molecular target: panel of more than 300 wild-type and mutant kinases (313 kinase panel) (Homo sapiens, UniProt P08631)
[7] = molecular target: panel of more than 300 wild-type and mutant kinases (313 kinase panel) (Homo sapiens, UniProt P22455)
[8] = molecular target: panel of more than 300 wild-type and mutant kinases (313 kinase panel) (Homo sapiens, UniProt P43405)
[9] = molecular target: panel of more than 300 wild-type and mutant kinases (313 kinase panel) (Homo sapiens, UniProt P22455, V550E); details: kinase FGFR4(V550E); compound at 1 μM
[10] = molecular target: panel of more than 300 wild-type and mutant kinases (313 kinase panel) (Homo sapiens, UniProt Q15349)
[11] = molecular target: panel of more than 300 wild-type and mutant kinases (313 kinase panel) (Homo sapiens, UniProt Q8IY84)
[12] = molecular target: panel of more than 300 wild-type and mutant kinases (313 kinase panel) (Homo sapiens, UniProt Q16539)
[13] = molecular target: panel of more than 300 wild-type and mutant kinases (313 kinase panel) (Homo sapiens, UniProt P49137)
[14] = molecular target: T2, panel of more than 300 wild-type and mutant kinases (313 kinase panel) (Homo sapiens, UniProt Q13043)
T2 sequence (Q13043 1-487): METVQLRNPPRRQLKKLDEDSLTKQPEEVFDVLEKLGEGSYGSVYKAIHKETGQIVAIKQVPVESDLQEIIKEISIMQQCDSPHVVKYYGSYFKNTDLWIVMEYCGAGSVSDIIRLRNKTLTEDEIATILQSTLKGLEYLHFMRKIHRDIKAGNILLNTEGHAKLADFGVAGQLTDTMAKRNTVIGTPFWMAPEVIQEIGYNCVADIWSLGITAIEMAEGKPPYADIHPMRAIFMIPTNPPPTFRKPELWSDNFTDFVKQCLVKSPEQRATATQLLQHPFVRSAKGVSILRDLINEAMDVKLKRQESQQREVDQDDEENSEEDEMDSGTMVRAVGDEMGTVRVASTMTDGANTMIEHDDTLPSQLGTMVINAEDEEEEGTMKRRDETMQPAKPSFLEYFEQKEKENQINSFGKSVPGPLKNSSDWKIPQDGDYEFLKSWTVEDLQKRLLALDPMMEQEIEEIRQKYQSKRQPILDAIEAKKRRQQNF

[15] = molecular target: panel of more than 300 wild-type and mutant kinases (313 kinase panel) (Homo sapiens, UniProt P07332)
[16] = kinase CDC2/CycB1, 1 μM compound
[17] = kinase MAPKAPK2, compound at 1 μM

panel of more than 300 wild-type and mutant kinases (313 kinase panel) (Homo sapiens, UniProt Q9BUB5), sequence (Q9BUB5 whole entry, change not shown): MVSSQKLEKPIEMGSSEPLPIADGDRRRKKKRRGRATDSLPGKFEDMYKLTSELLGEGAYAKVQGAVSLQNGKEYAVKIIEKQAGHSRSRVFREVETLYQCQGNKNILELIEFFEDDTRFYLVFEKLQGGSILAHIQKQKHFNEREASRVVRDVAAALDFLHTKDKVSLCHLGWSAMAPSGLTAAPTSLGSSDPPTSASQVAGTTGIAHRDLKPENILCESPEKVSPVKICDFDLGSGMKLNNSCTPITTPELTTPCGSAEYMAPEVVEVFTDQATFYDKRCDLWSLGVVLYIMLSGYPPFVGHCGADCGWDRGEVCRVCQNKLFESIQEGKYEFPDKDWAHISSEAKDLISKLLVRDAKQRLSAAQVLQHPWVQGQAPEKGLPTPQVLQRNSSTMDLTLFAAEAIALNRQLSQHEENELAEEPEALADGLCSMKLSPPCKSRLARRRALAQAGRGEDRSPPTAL
panel of more than 300 wild-type and mutant kinases (313 kinase panel) (Homo sapiens, UniProt Q9UKE5), sequence (Q9UKE5 whole entry, change not shown): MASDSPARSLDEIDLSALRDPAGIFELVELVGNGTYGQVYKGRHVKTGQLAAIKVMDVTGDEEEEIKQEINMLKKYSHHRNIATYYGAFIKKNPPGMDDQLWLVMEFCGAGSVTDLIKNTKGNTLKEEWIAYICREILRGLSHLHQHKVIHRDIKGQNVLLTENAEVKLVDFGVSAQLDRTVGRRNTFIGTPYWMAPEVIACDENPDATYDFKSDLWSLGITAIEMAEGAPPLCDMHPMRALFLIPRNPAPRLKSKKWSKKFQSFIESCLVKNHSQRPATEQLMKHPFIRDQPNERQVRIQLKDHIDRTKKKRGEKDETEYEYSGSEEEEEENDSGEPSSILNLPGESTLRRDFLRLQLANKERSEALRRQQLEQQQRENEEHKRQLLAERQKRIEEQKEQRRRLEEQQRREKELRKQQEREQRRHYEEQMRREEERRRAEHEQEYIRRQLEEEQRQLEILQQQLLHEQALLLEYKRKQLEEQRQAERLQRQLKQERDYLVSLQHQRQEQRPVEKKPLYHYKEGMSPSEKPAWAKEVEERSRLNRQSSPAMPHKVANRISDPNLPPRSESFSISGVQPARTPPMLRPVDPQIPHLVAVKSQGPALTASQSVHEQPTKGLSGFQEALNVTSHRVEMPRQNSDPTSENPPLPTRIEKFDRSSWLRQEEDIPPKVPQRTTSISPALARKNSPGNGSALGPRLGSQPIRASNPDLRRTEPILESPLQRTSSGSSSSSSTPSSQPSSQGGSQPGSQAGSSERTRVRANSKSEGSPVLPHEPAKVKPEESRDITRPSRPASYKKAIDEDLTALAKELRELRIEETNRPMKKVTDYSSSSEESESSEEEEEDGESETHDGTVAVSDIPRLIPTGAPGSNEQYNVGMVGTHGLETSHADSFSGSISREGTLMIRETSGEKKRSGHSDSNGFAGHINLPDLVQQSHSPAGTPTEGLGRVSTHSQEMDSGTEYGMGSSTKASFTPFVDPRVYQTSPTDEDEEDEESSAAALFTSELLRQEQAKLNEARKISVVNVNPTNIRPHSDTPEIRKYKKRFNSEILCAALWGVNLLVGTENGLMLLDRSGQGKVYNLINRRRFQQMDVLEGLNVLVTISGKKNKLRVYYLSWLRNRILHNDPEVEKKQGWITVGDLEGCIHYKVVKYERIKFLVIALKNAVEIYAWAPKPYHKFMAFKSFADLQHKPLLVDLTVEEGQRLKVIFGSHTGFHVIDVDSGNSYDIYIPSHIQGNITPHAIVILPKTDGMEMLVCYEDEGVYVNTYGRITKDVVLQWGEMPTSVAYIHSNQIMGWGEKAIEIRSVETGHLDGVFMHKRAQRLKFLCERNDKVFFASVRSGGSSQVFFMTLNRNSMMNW
panel of more than 300 wild-type and mutant kinases (313 kinase panel) (Homo sapiens, UniProt Q9BYP7), sequence (Q9BYP7 whole entry, change not shown): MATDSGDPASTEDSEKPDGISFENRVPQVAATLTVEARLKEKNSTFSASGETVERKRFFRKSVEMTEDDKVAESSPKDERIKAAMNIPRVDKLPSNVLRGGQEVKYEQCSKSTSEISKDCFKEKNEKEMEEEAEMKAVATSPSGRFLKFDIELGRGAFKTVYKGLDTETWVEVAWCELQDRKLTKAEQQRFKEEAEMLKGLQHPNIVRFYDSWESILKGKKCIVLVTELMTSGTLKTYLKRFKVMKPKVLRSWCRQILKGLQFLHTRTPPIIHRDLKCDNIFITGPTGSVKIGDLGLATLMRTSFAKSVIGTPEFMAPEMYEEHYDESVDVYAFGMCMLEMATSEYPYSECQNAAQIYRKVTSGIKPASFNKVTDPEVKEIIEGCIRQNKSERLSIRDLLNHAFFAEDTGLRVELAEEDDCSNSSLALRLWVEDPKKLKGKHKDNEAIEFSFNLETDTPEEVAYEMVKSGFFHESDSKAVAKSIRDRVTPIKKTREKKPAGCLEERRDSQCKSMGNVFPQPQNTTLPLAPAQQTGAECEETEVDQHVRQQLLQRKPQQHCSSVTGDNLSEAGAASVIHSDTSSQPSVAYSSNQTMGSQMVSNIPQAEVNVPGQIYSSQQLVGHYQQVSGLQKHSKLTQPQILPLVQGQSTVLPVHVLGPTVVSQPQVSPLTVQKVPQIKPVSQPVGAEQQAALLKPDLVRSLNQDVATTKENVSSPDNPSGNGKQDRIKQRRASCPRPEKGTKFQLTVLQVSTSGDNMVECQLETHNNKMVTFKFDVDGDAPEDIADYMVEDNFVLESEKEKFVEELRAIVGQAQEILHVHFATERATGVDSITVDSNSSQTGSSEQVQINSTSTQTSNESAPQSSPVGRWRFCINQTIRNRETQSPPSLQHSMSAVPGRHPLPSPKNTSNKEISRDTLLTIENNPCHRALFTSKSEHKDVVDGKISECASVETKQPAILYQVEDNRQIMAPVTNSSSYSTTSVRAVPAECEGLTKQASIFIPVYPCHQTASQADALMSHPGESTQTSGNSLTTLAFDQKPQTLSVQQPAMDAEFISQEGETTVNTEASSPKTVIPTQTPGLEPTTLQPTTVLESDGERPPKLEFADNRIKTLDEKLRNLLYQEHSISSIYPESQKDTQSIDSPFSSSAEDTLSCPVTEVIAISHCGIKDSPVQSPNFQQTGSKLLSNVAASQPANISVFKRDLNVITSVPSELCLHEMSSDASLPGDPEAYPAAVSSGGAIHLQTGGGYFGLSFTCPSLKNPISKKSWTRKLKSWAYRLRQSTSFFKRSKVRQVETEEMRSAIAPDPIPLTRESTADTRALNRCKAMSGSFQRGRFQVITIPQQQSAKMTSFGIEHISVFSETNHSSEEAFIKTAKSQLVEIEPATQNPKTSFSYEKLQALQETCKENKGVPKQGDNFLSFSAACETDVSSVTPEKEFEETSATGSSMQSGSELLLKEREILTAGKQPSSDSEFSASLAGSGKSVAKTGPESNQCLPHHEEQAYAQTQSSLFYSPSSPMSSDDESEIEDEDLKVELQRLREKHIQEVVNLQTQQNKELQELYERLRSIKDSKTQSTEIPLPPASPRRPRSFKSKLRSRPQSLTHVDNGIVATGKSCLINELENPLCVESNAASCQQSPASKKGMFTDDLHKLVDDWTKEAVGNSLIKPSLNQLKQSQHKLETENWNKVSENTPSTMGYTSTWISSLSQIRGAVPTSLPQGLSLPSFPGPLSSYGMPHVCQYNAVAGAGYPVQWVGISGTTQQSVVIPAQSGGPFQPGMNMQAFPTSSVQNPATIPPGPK
panel of more than 300 wild-type and mutant kinases (313 kinase panel) (Homo sapiens, UniProt P22455, V550E), sequence (P22455 22-802 V550E): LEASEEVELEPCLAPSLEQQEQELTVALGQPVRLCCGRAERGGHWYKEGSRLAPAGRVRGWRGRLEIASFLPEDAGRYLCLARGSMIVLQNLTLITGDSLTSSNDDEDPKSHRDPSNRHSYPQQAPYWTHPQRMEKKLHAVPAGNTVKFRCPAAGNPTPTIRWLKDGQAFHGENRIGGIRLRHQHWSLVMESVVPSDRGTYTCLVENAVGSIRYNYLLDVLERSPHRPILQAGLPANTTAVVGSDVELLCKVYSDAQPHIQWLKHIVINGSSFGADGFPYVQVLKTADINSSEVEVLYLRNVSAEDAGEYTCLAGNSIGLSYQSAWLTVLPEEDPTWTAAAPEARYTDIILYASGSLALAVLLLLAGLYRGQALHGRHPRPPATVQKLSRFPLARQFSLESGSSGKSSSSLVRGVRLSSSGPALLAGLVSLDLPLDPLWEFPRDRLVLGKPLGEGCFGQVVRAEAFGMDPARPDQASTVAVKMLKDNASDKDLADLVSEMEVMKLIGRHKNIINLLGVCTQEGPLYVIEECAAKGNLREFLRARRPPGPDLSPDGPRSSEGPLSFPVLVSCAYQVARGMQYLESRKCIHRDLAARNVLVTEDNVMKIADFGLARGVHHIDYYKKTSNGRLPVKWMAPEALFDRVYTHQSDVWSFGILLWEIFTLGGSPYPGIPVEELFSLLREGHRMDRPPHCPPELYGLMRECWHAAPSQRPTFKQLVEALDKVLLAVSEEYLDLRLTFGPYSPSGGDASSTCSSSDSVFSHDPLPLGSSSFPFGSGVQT
panel of more than 300 wild-type and mutant kinases (313 kinase panel) (Homo sapiens, UniProt P08631), sequence (P08631 whole entry, change not shown): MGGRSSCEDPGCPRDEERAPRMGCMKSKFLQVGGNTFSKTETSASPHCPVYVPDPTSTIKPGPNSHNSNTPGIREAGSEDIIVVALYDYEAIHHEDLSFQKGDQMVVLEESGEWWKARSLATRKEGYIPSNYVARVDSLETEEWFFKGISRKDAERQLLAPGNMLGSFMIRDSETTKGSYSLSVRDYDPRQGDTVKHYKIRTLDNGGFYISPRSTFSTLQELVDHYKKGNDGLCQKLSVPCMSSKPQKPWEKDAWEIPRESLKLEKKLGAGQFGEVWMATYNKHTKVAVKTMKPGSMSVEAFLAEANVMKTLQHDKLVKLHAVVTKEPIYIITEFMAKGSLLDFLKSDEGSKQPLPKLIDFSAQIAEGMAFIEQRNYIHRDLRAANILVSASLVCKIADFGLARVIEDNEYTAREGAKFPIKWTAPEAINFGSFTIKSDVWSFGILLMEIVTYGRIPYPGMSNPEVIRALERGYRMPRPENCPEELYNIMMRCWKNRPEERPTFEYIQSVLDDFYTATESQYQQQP

Compound | %-inhibition of DYRK3 ([1]; kinase DYRK3, compound at 1 μM) [%] | %-inhibition, CDC2/CycB1 [2, 16] [%] | %-inhibition of MNK1 ([3]; kinase MNK1, 1 μM) [%] | %-inhibition of WNK3 ([4]; kinase WNK3, compound at 1 μM) [%] | %-inhibition of TNIK ([5]; kinase TNIK, 1 μM) [%] | %-inhibition of HCK ([6]; kinase HCK, compound at 1 μM) [%] | %-inhibition of FGFR4 ([7]; kinase FGFR4, compound at 1 μM) [%] | %-inhibition of SYK ([8]; kinase SYK, 1 μM) [%] | %-inhibition of FGFR4(V550E) [9] [%] | %-inhibition of MGC42105 ([11]; kinase MGC42105, 1 μM) [%] | %-inhibition of p38α ([12]; kinase p38α, 1 μM) [%] | %-inhibition of MAPKAPK2 [13, 17] [%] | %-inhibition of RSK3 ([10]; kinase RSK3, 1 μM) [%] | %-inhibition of FES ([15]; kinase FES, compound at 1 μM) [%] | further results
CN(C)C/C=C/C(=O)Nc1cc2c(Nc3ccc(F)c(Cl)c3)ncnc2cc1O[C@H]1CCOC1 [afatinib] | 29 | – | – | – | – | – | – | – | – | – | – | – | – | – | –
COc1cc(Nc2c(C#N)cnc3cc(OCCCN4CCN(C)CC4)c(OC)cc23)c(Cl)cc1Cl [bosutinib] | 12 | -1.38 | -4.37 | 13 | 102 | 89 | 2.67 | 100 | -3.46 | 32 | 9 | – | – | – | %-inhibition of RSK3 ([10]; 1 µM): 67%
C[C@@H](Oc1cc(-c2cnn(C3CCNCC3)c2)cnc1N)c1c(Cl)ccc(F)c1Cl [crizotinib] | 14 | 19 | 0 | -8 | 11 | 26 | 0 | – | -0.358 | -6 | -2.27 | -17 | 3.34 | – | %-inhibition of MST1 ([14]; kinase MST1, 1 μM): 83%
CC(C)(C)c1nc(-c2cccc(NS(=O)(=O)c3c(F)cccc3F)c2F)c(-c2ccnc(N)n2)s1 [dabrafenib] | -5.68 | – | 20 | 1.34 | 15 | 57 | 19 | 37 | -5 | -8.54 | – | – | – | 2.29 | –
Cc1nc(Nc2ncc(C(=O)Nc3c(C)cccc3Cl)s2)cc(N2CCN(CCO)CC2)n1 [dasatinib] | – | 4.44 | – | – | – | – | – | 69 | – | -0.563 | 91 | – | – | – | –
C#Cc1cccc(Nc2ncnc3cc(OCCOC)c(OCCOC)cc23)c1 [erlotinib] | – | – | – | – | – | – | – | – | – | – | – | – | – | – | %-inhibition, CDC2/CycB1 ([2]; 1 µM): 6%; %-inhibition of MAPKAPK2 ([13]; 1 µM): 4.42%; %-inhibition of MNK1 ([3]; 1 µM): 74%; %-inhibition of WNK3 ([4]; 1 µM): 0.315%; %-inhibition of TNIK ([5]; 1 µM): 34%; %-inhibition of HCK ([6]; 1 µM): 26%; %-inhibition of FGFR4 ([7]; 1 µM): 6%; %-inhibition of FES ([15]; 1 µM): 8.5%; %-inhibition of SYK ([8]; 1 µM): 17%; %-inhibition of MST1 ([14]; 1 µM): -1.06%; %-inhibition of DYRK3 ([1]; 1 µM): 22%; %-inhibition of RSK3 ([10]; 1 µM): 9%; %-inhibition of MGC42105 ([11]; 1 µM): 4%; %-inhibition of p38α ([12]; 1 µM): -0.474%
O=S(=O)(c1cccc2cnccc12)N1CCCNCC1 [fasudil] | 26 | 6.46 | 15 | 0.446 | 4 | -2.15 | – | 6 | -2.85 | 3.31 | -7 | -13 | – | -3.78 | %-inhibition of MST1 ([14]; kinase MST1, 1 μM): 10%
CS(=O)(=O)CCNCc1ccc(-c2ccc3ncnc(Nc4ccc(OCc5cccc(F)c5)c(Cl)c4)c3c2)o1 [lapatinib] | -2.24 | 0.355 | 11 | – | 25 | – | 0.821 | 0 | – | – | -3 | – | 5.43 | 5 | %-inhibition of HCK ([6]; 1 µM): -0.366%; %-inhibition of MST1 ([14]; 1 µM): -5.59%
Cc1cn(-c2cc(NC(=O)c3ccc(C)c(Nc4nccc(-c5cccnc5)n4)c3)cc(C(F)(F)F)c2)cn1 [nilotinib] | -1.09 | 1 | – | -7 | 11 | – | -7.46 | 54 | – | – | – | 2.56 | 11 | -19 | %-inhibition of MNK1 ([3]; 1 µM): -1.26%; %-inhibition of HCK ([6]; 1 µM): 73%; %-inhibition of MST1 ([14]; 1 µM): -21%; %-inhibition of MGC42105 ([11]; 1 µM): -48%; %-inhibition of p38α ([12]; 1 µM): 92%
Cc1ccc(Nc2nccc(N(C)c3ccc4c(C)n(C)nc4c3)n2)cc1S(N)(=O)=O [pazopanib] | -4.54 | 3 | -2 | 8 | 83 | 67 | – | 40 | – | 0.318 | 10 | -2.44 | 7 | – | %-inhibition of MST1 ([14]; kinase MST1, 1 μM): 2%
Cc1ccc(C(=O)Nc2ccc(CN3CCN(C)CC3)c(C(F)(F)F)c2)cc1C#Cc1cnc2cccnn12 [ponatinib] | 50 | 33 | 30 | 0.73 | 96 | 98 | 98 | 10 | -1.79 | -5.68 | 101 | – | 62 | – | –
CCN(CC)CCNC(=O)c1c(C)[nH]c(/C=C2\C(=O)Nc3ccc(F)cc32)c1C [sunitinib] | – | – | – | – | 94 | – | – | – | – | – | – | – | – | – | –
